In PubChem BioAssay (NCI):
Values joined by “and” are separate entries in the source; they are usually repeats but may differ in a detail not shown here. Equal values may be shown once.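 Step 1: Grow cells in 96-well plates. Step 2: Expose to compound for 48 hours at 5 concentrations. Step 3: Interpolate endpoints linearly; if unreached, use highest concentration. GI50: concentration for 50% inhibition of growth. TGI: total growth inhibition.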

Assays:
Test in all cases: growth of human tumour cells (NCI), 48 h
786-0 renal = test system: 786-0 renal
CCRF-CEM leukemia = test system: CCRF-CEM leukemia
SW-620 colon = test system: SW-620 colon
NCI-H460 lung = test system: NCI-H460 lung
HOP-62 NSCLC = test system: HOP-62 NSCLC
MDA-MB-231 breast = test system: MDA-MB-231 breast
T-47D breast = test system: T-47D breast
SK-OV-3 ovarian = test system: SK-OV-3 ovarian
HOP-92 NSCLC = test system: HOP-92 NSCLC
A498 renal = test system: A498 renal

Row | SMILES | GI50 (786-0 renal) [µM] | TGI (786-0 renal) | GI50 (CCRF-CEM leukemia) | TGI (CCRF-CEM leukemia) [µM] | GI50 (SW-620 colon) [µM] | TGI (SW-620 colon) [µM] | GI50 (NCI-H460 lung) | TGI (NCI-H460 lung) | GI50 (HOP-62 NSCLC) | TGI (HOP-62 NSCLC) [µM] | GI50 (MDA-MB-231 breast) | TGI (MDA-MB-231 breast) [µM] | GI50 (T-47D breast) [µM] | TGI (T-47D breast) | GI50 (SK-OV-3 ovarian) | TGI (SK-OV-3 ovarian) [µM] | GI50 (HOP-92 NSCLC) [µM] | TGI (HOP-92 NSCLC) | GI50 (A498 renal) [µM] | TGI (A498 renal)
1 | O=C1c2cccc3c([N+](=O)[O-])ccc(c23)C(=O)N1CCCCl | > 10 | > 10 µM | 0.489 µM | 3.28 | 2.08 | 5.95 | 5.55 µM | > 10 µM | 6.6 µM | > 10 | > 10 µM | > 10 | 2.65 | > 10 µM | > 10 µM | > 10 | > 10 | > 10 µM | > 10 | > 10 µM
2 | CC[C@]12C=CCN3CC[C@@]4(c5ccc(OC)cc5N(C)[C@H]4[C@@](O)(C(=O)OC)[C@@H]1OC(=O)CCCC[P+](c1ccccc1)(c1ccccc1)c1ccccc1)[C@@H]32 | 2.33 | 6.74 µM | 0.789 µM | 6.46 | 1.14 | 12.6 | 1.7 µM | 11.6 µM | 2.94 µM | 13.7 | 0.414 µM | 1.9 | 0.396 | 12.7 µM | 0.725 µM | 5.9 | 0.238 | 1.35 µM | 2.84 | 10.4 µM
3 | Nc1nc(=O)c2[nH]cnc2n1O |  | > 100 µM |  | > 100 |  | > 100 |  | > 100 µM |  | > 100 |  | > 100 |  | > 100 µM |  | > 100 |  | > 100 µM |  | > 100 µM
4 | COc1ccc(-c2cc(=O)c3c(OC)c(O)c(OC)cc3o2)cc1 |  | > 100 µM |  | > 100 |  | > 100 |  | > 100 µM |  | > 100 |  | > 100 |  | > 100 µM |  | > 100 |  | 89.6 µM |  | 88.5 µM
5 | O=C(NCCN1CCOCC1)Nc1nc2ccc(Sc3nnc4ccc(-c5ccc(F)cc5)nn34)cc2s1 | 1.59 | 5.39 µM |  | > 100 |  | > 100 |  | > 100 µM | > 20.8 µM | > 100 | 3 µM | > 21.6 | > 21.2 | > 59.6 µM | > 100 µM | > 100 | 3.32 | > 100 µM | 80.6 | > 100 µM
6 | Cc1ccc(C(=O)Nc2ccc(CN3CCN(C)CC3)c(C(F)(F)F)c2)cc1C#Cc1cnc(N)c2ccc(C#N)cc12 | 0.426 | 3.79 µM | 0.807 µM | 18 | 1.8 | > 28.3 | 0.557 µM | 16.6 µM | 1.7 µM | 22.9 | 0.23 µM | 2.02 | 3.57 | > 50 µM | 0.0981 µM | 12.8 | 0.0134 | 0.714 µM | 0.133 | 49.3 µM
7 | O=C(/C=C/c1ccccc1)Nc1ncc(Cc2ccccc2)s1 | 0.598 | 10.7 µM | 0.194 µM | > 80.8 | 0.144 | > 100 | 0.289 µM | 5.01 µM | 0.398 µM | > 39 | 0.415 µM | 9.28 | 0.413 | > 100 µM | 0.458 µM | 6.24 | 4.72 | > 84.8 µM | 0.24 | 3.39 µM
8 | NNC(=O)C(O)C(O)C(O)CO (stereo not drawn) |  | > 100 µM |  | > 100 |  | > 100 |  | > 100 µM |  | > 100 |  | > 100 |  | > 100 µM |  | > 100 |  | > 100 µM |  | > 100 µM
9 | C=C(c1ccc(OC)c(/C=C/C(=O)c2cc(OC)c(OC)c(OC)c2)c1)c1cc(OC)c(OC)c(OC)c1 | 1.68 | 3.7 µM | 0.359 µM | > 100 | 0.6 | 2.38 | 1.44 µM | 3.54 µM | 2.27 µM | 6.68 | 0.995 µM | > 100 | 1.38 | 6.12 µM | 3.6 µM | > 100 | 1.14 | 6.9 µM | 1.48 | 3.11 µM
10 | COc1ccc2c(c1)O/C(=C\c1ccc([N+](=O)[O-])o1)C2=O | 1.99 | 4.83 µM | 0.34 µM | 1.7 | 0.294 | 1.39 | 0.598 µM | 3.89 µM | 2.05 µM | 6.56 | 2.03 µM | 6.63 | 1.4 | 8.83 µM | 4.75 µM | 59 | 1.95 | 5.62 µM | 1.74 | 4.54 µM
11 | COc1ccc(C2CC(c3ccc4ccccc4c3)=NN2/C=C2\SC(=S)N(NC(=O)Cc3ccccc3Nc3c(Cl)cccc3Cl)C2=O)cc1 (stereo not drawn) | 0.508 | > 38.1 µM | 0.239 µM | > 100 | 0.416 | > 52.7 | 0.388 µM | > 34 µM | 0.958 µM | > 49.9 | 1.6 µM | > 44.4 | 0.788 | 98.8 µM | 0.847 µM | > 100 | 1.27 | > 53.4 µM | 0.302 | 0.99 µM
12 | CS(=O)(=O)c1nccc(-c2c(-c3cccc(OCc4ccccc4)c3)nc3sccn23)n1 | 12.9 | > 100 µM | > 30.1 µM | > 100 | 4.67 | > 100 | > 83.5 µM | > 100 µM | > 80.9 µM | > 100 | 16.2 µM | > 100 | 11.7 | > 100 µM | 23.3 µM | > 100 | 6.38 | > 100 µM | 13.5 | > 89.9 µM
13 | Cc1cc(C)nc(NS(=O)(=O)c2ccc(Nc3nc4nc(NCc5ccccc5)nc(-c5ccc(O)cc5)c4c(=O)[nH]3)cc2)n1 | 66.7 | > 100 µM | 54.6 µM | > 100 | 26.7 | > 100 | 49.9 µM | > 100 µM | > 100 µM | > 100 | 29.6 µM | > 100 | 18.4 | > 100 µM | > 100 µM | > 100 | 14.6 | 61.3 µM | 24.5 | > 100 µM
14 | CC/C=C\C[C@H](O)C/C=C1/C(=O)C=C[C@@H]1C/C=C\CCCC(=O)OCCS(=O)(=O)c1ccccc1 | 3.22 | 8.61 µM | 2.44 µM | 9.26 | 4.07 | 14.9 | 2.53 µM | 6.35 µM | 3.47 µM | 10.5 | 5.34 µM | 20.7 | 3.76 | 18.7 µM | 6.38 µM | 27.7 | 6.87 | 19.4 µM | 19.1 | 35.5 µM
15 | COc1ccc(C(=O)OC2C(OC3C(O)COC(O[C@H]4C[C@H]5[C@@H]6CC=C7C[C@@H](O)CC[C@]7(C)[C@H]6CC[C@]5(C)[C@H]4[C@H](C)C(=O)CCC(C)C)C3OC(=O)C(C)C)OCC(O)C2O)cc1 (stereo partly drawn) | < 0.00275 | 2.99 µM | 0.00574 µM | 0.0317 | 0.0125 | 0.389 | 0.0108 µM | 0.538 µM | 0.0129 µM | 1.45 | 0.101 µM | 4.65 | 0.0358 | 3.08 µM | 0.0127 µM | 1.52 | 0.0208 | 3.1 µM | 0.00395 | 0.0161 µM
16 | O=S1(=O)OCc2ccccc21 |  | > 100 µM |  | > 100 |  | > 100 |  | > 100 µM |  | 42.3 |  | > 100 |  | > 100 µM |  | > 100 |  | > 100 µM |  | > 100 µM
17 | OCCNC(=S)Nc1ccc(-c2nc(N3C[C@H]4CC[C@@H](C3)O4)c3cccn3n2)cc1 | 0.0677 | 12.8 µM | 0.153 µM | > 40.6 | 0.203 | 13.8 | 0.0312 µM | 19.4 µM | 0.0324 µM | 0.662 | 0.0583 µM | 6.57 | < 0.01 | 0.0389 µM | 0.0162 µM | 0.104 | < 0.0133 | 0.161 µM | < 0.01 | 0.0307 µM
18 | CC(C)C[C@H](NC(=O)[C@H](Cc1ccccc1)NC(=O)c1cnccn1)B(O)O | 0.00245 | 0.381 µM and 0.0967 µM and 0.411 µM | < 0.01 µM and 0.00104 µM |  | 0.00121 |  | 0.0183 µM and 0.00468 µM | 0.121 µM and 0.0397 µM and 0.15 µM | < 0.0131 µM and 0.00317 µM |  | < 0.0118 µM and 0.00177 µM | 0.00541 | 0.00167 | < 0.01 µM and 0.00411 µM | 0.0187 µM and 0.0085 µM |  | 0.0015 | 0.0196 µM and 0.00723 µM | 0.000833 | < 0.01 µM and 0.00352 µM
19 | COc1ccc2c(c1)[n+]([O-])c(/C(C)=N/NC(N)=S)c(C)[n+]2[O-] |  | > 100 µM |  | > 100 |  | > 100 |  | > 71.4 µM |  | > 100 |  | > 100 |  | > 100 µM |  | > 100 |  | > 100 µM |  | > 100 µM
20 | O=c1ncc(I)c[nH]1 | > 100 | > 100 µM | > 100 µM | > 100 | > 100 | > 100 | > 100 µM | > 100 µM | > 100 µM | > 100 | > 100 µM | > 100 | > 100 | > 100 µM | > 100 µM | > 100 | > 100 | > 100 µM | > 100 | > 100 µM
